Results reported in patent publication US20260193229A1, “BRISC DEUBIQUITINATING ENZYME INHIBITORS” (THE TRUSTEES OF THE UNIVERSITY OF PENNSYLVANIA, priority 2022, published 2026).

Each compound was assayed against T1, BRISC (Homo sapiens, UniProt P46736+Q15018) (assay: BRISC DUB inhibition assay with quenched K63-linked di-ubiquitin substrate (TAMRA fluorescence)). Conditions: Table 1, Activity Range Table.
T1 construct: made in house; host or cells: insect cells (MultiBac baculovirus)
Type: biochemical
Protocol: High throughput screening. A baculoviral expression system was established to purify milligram quantities of the entire BRISC complex from insect cells. The MultiBac system was used to clone all 4 components of the BRISC complex into one vector which was then packaged into the baculovirus genome using the methods described in Zeqiraj et al., 2015 (Mol. Cell).
The assay buffer included: 50 mM HEPES-NaOH, pH 7.0; 100 mM NaCl; 1 mM DTT; 1 mg/ml BSA; and 0.03% Brij-35. BRISC was assayed at 1 nM (final concentration) with the substrate at 500 nM (final concentration). The final reaction volume was 20 μl in each 384 plate well (Corning, #3573; black, low flange, flat bottom) with a final concentration of compounds of 10 μM.
A 5 ml of enzyme solution with BRISC at 2 nM in assay buffer was made by adding 10 μl of BRISC working stock (1 μM) to 5 ml of assay buffer. A 5 ml of substrate solution was made with […] of K63-diUbiquitin (made in-house) plus […] of IQF K63-diUbiquitin by adding the appropriate volumes of diUbiquitins to 5 ml of assay buffer. 45 μL of BRISC (enzyme solution) was dispensed into columns 1-11 of a 96 well PCR plate (skirted). Buffer was only dispensed in column 12 (no enzyme control). 45 μl of substrate solution was dispensed into columns 1-12 of a 96 well PCR plate (skirted). The plate was spun down at 3000 rpm (bench top centrifuge) at room temp for 2 min to remove any air bubbles. Using a Biomek FX, liquid handler (Bekman), 10 μl of BRISC (enzyme solution) was dispensed into the 4 quadrants of a 384 well plate. 200 nl of compounds was dispensed into each well of the 384 plates using the pin tool (columns A and B usually contain DMSO only, and serve as controls), and the plates were incubated for 10-15 minutes at room temperature. 10 μl of substrate solution was dispensed into the 4 quadrants of the 384 well plate. The plate was then incubated for 30 min at room temperature in the dark and read with settings suitable for detecting TAMRA fluorescence (excitation wavelength of 540 nm and emission wavelength of 580 nm). A PHERAStar plate (BMG labtech) reader was used with a gain value of 570. The Intensity/Background (I/Bg), defined as [(Average of columns 1 and 2; DMSO controls)/(Average of columns 23 and 24; no enzyme controls)], were about 5.
The activities of the compounds disclosed in the present disclosure in inhibiting BRCC36 enzyme activity was measured in accordance with the method disclosed in Example 2.

Row | IC50 [µM] | Compound
1 | 1 to 10 | O=C(NC1CCNCC1)c1nn(S(=O)(=O)c2cc(Cl)cc(Cl)c2)cc1NC(=O)c1c(Cl)cccc1Cl [Compound 3]
2 | 1 to 10 | O=C(NC1CCNCC1)c1nn(S(=O)(=O)c2ccc(Cl)cc2)cc1NC(=O)c1c(Cl)cccc1Cl [Compound 4]
3 | 10 to 50 | O=C(NC1CCNCC1)c1nn(S(=O)(=O)c2ccccc2)cc1NC(=O)c1c(Cl)cccc1Cl [Compound 5]
4 | 1 to 10 | O=C(NC1CCNCC1)c1nn(S(=O)(=O)CCc2ccccc2)cc1NC(=O)c1c(Cl)cccc1Cl [Compound 6]
5 | 1 to 10 | O=C(Nc1cn(C(=O)c2c(Cl)cccc2Cl)nc1C(=O)N1CCNCC1)c1c(Cl)cccc1Cl [Compound 7]
6 | 1 to 10 | O=C(N[C@@H]1CCNC1)c1nn(C(=O)c2c(Cl)cccc2Cl)cc1NC(=O)c1c(Cl)cccc1Cl [Compound 8]
7 | 1 to 10 | O=C(N[C@H]1CCNC1)c1nn(C(=O)c2c(Cl)cccc2Cl)cc1NC(=O)c1c(Cl)cccc1Cl [Compound 9]
8 | 1 to 10 | NCCCNC(=O)c1nn(C(=O)c2c(Cl)cccc2Cl)cc1NC(=O)c1c(Cl)cccc1Cl [Compound 10]
9 | 1 to 10 | CN(C(=O)c1nn(C(=O)c2c(Cl)cccc2Cl)cc1NC(=O)c1c(Cl)cccc1Cl)C1CCNCC1 [Compound 11]
10 | 1 to 10 | CC1CNCCC1NC(=O)c1nn(C(=O)c2c(Cl)cccc2Cl)cc1NC(=O)c1c(Cl)cccc1Cl (stereo not shown) [Compound 12]
11 | 1 to 10 | O=C(NC1C2CNCC21)c1nn(C(=O)c2c(Cl)cccc2Cl)cc1NC(=O)c1c(Cl)cccc1Cl (stereo not shown) [Compound 13]
12 | 10 to 50 | CN(C(=O)c1nn(C(=O)c2c(Cl)cccc2Cl)cc1NC(=O)c1c(Cl)cccc1Cl)C1CNC1 [Compound 15]
13 | 10 to 50 | O=C(NC1CNC1)c1nn(C(=O)c2c(Cl)cccc2Cl)cc1NC(=O)c1c(Cl)cccc1Cl [Compound 17]
14 | 10 to 50 | COc1ccccc1NC(=O)n1cc(NC(=O)c2c(Cl)cccc2Cl)c(C(=O)NC2CCNCC2)n1 [Compound 18, 4-(2,6-dichlorobenzamido)-N1-(2-methoxyphenyl)-N3-(piperidin-4-yl)-1H-pyrazole-1,3-dicarboxamide]
15 | 10 to 50 | COc1ccccc1NC(=O)n1cc(NC(=O)c2c(Cl)cccc2Cl)c(C(=O)NC2CCNCC2)n1 [Compound 19]
16 | 10 to 50 | O=C(NCCN1CCCC1)c1nn(C(=O)c2c(Cl)cccc2Cl)cc1NC(=O)c1c(Cl)cccc1Cl [Compound 20]
17 | 50 to 300 | COC(=O)c1ccccc1NC(=O)n1cc(NC(=O)c2c(Cl)cccc2Cl)c(C(=O)NCCCN2CCCC2)n1 [Compound 21]
18 | 50 to 300 | O=C(NC1CCNCC1)c1nn(S(=O)(=O)c2cccc(Cl)c2)cc1NC(=O)c1c(Cl)cccc1Cl [Compound 24]
19 | 50 to 300 | O=C(NC1CCNCC1)c1nn(S(=O)(=O)c2ccccc2Cl)cc1NC(=O)c1c(Cl)cccc1Cl [Compound 25]
20 | 50 to 300 | O=C(NC1CCNCC1)c1nn(S(=O)(=O)c2cc(C(F)(F)F)ccc2Cl)cc1NC(=O)c1c(Cl)cccc1Cl [Compound 26]
21 | 50 to 300 | O=C(NC1CCNCC1)c1nn(S(=O)(=O)c2cc(Cl)cc(C(F)(F)F)c2)cc1NC(=O)c1c(Cl)cccc1Cl [Compound 27]
22 | 10 to 50 | C[N+]1(C)CCC(NC(=O)c2nn(C(=O)c3c(Cl)cccc3Cl)cc2NC(=O)c2c(Cl)cccc2Cl)CC1 [Compound 29]
23 | 1 to 10 | O=C(NC1CCNCC1)c1nn(S(=O)(=O)c2ccc(OCCCN3C(=O)c4ccccc4C3=O)cc2)cc1NC(=O)c1c(Cl)cccc1Cl [Compound 30, 4-(2,6-dichlorobenzamido)-1-(4-(3-(1,3-dioxoisoindolin-2-yl)propoxy)phenylsulfonyl)-N-(piperidin-4-yl)-1H-pyrazole-3-carboxamide]
24 | 1 to 10 | O=C(NC1CCNCC1)c1nn(S(=O)(=O)CCc2ccc(Cl)cc2)cc1NC(=O)c1c(Cl)cccc1Cl [Compound 31]
25 | 10 to 50 | C#CCCCCOC(=O)COc1ccc(S(=O)(=O)n2cc(NC(=O)c3c(Cl)cccc3Cl)c(C(=O)NC3CCNCC3)n2)cc1 [Compound 32, Hex-5-ynyl 2-(4-(4-(2,6-dichlorobenzamido)-3-(piperidin-4-ylcarbamoyl)-1H-pyrazol-1-ylsulfonyl)phenoxy)acetate]
